Measured values from US8399465B2, “Compounds with two fused bicyclic heteroaryl moieties as modulators of leukotriene A4 hydrolase” (Janssen Pharmaceutica NV, priority 2009, dated 2013).
Structures can show the parent of a compound that is named as a salt.

Assays:
[1] = test system: LTB4 production in murine blood (LTA4H); experiment: LTB4 production by calcium ionophore-stimulated murine blood for LTA4H inhibitor activity; type: cell-based, CD-1 mice; conditions: Mus musculus; murine blood diluted 1 in 15, A23187 stimulated; single determination or average; mark after value = form tested: ′ free base, ″ hydrochloride, ^ formate; read-out: IC50
In short: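 Heparinized blood from CD-1 mice was preincubated with compound for 15 min at 37° C, then stimulated with calcium ionophore A23187 (final 7 μg/mL) for 30 min. Centrifugation stopped the reaction, and LTB4 in the supernatant was measured by enzyme immunoassay. Values are single determinations or means of two or more.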

[2] = test system: ex vivo calcium ionophore-stimulated LTB4 production in whole blood; experiment: Murine arachidonic acid-induced inflammation model: ex vivo stimulated LTB4 production in blood; parameters: species or system Balb/c mice; conditions: Mus musculus; 30 mg/kg oral gavage; blood diluted 1:1, A23187 stimulated ex vivo; percent inhibition of LTB4 production; read-out: % Inh. LTB4
Experimental: (§1) Assay 3: Murine Arachidonic Acid-Induced Inflammation Model
(§2) LTA4H inhibitor compounds of the present invention were dissolved in 20% cyclodextran/H2O at a concentration of 3 mg/mL. The solutions were administered by oral gavage to female Balb/c mice weighing approximately 20 grams each (0.2 mL per mouse, 30 mg of LTA4H inhibitor compound per kg). Sixty minutes after being administered an LTA4 inhibitor, each mouse received topical application of 20 μL of arachidonic acid (100 mg/mL in acetone) to the left ear and 20 μL of acetone only to the right ear. After 3 h, the mice were sacrificed, blood was withdrawn in heparinized syringes, and 8 mm ear biopsies were taken. Ear biopsies were weighed to determine edema and then frozen at −80° C. until needed for determination of neutrophil influx.
The microtiter plate contents were incubated for 30 min at 37° C. in a humidified incubator. The reaction was terminated by centrifugation (833×g, 10 min at 4° C.). Supernatants were analyzed for LTB4 by a commercially available enzyme-linked immunoassay (Cayman Chemical Co.) in accordance with the manufacturer's instructions. The percent inhibition of ex vivo stimulated LTB4 production (% Inh. LTB4) was determined by comparison to animals treated identically except that the solution administered by oral gavage was devoid of inhibitor compound.

[3] = biological target: T1, recombinant human LTA4 hydrolase (rhLTA4H) (Homo sapiens, UniProt P09960); experiment: Recombinant human LTA4 hydrolase assay for LTA4 hydrolase inhibitor activity; type: biochemical; conditions: rhLTA4H, LTB4 by immunoassay; single determination or average of two or more; mark after value = form tested: ′ free base, ″ hydrochloride, ^ formate; read-out: IC50
T1 construct: made in house; host or cells: Spodoptera frugiperda (Sf-9) cells, baculovirus (pFastBac1)
T1 sequence (P09960 1-611): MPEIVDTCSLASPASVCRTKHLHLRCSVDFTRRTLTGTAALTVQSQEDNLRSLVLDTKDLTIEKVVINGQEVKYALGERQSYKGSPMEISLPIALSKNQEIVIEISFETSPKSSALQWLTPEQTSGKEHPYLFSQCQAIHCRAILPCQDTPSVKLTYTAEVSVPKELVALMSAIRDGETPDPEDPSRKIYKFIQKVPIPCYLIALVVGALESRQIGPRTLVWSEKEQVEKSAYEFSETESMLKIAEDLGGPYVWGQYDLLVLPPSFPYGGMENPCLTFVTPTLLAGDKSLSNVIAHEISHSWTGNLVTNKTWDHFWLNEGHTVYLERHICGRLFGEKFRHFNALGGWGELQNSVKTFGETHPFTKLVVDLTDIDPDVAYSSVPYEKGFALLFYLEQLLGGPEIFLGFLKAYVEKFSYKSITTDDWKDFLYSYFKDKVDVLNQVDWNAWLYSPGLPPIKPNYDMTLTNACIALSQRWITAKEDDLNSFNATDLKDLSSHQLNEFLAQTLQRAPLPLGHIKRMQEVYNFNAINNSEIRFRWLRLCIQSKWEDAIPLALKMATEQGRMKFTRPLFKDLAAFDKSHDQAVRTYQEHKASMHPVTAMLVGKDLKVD
In short: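 Baculovirus/Sf-9-expressed human LTA4H (10 ng) was preincubated 10 min at rt with compound in assay buffer (10% DMSO in compound dilution), then reacted 30 min at rt with LTA4 free acid made from its methyl ester. LTB4 produced was measured by ELISA after dilution; IC50 from non-linear regression, single or averaged determinations.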

[4] = test system: arachidonic acid-induced neutrophil influx in murine ear tissue; experiment: Murine arachidonic acid-induced inflammation model: neutrophil influx (myeloperoxidase) in ear; type: in vivo, Balb/c mice; conditions: Mus musculus; 30 mg/kg oral gavage, 60 min before topical arachidonic acid, ear biopsy after 3 h; percent inhibition of neutrophil influx; read-out: % Inh. MPO
Experimental: as §1, §2
Neutrophil influx was quantified by measuring the activity of myeloperoxidase (MPO), a neutrophil-specific enzyme. […] Debris was removed by centrifugation at 14000×g for 10 min. […] The microtiter plate contents were held at room temperature until the sample with the highest concentration of MPO reached an absorbance value of 0.4 at 650 nm. The reaction was stopped by addition of 50 μL 1 M H2SO4 to each sample well, and the myeloperoxidase activity in each sample was determined from the absorbance at […]. The background value from the right ear, treated only with acetone, was subtracted from that for the left ear, treated with arachidonic acid in acetone, for each animal. The percent inhibition of neutrophil influx (% Inh. MPO) by compounds of the invention was determined by comparison to animals treated identically, except that the solution administered by oral gavage was devoid of inhibitor compound. All compounds were assayed in their free base form.

SMILES	IC50 [1]	inhibition at 30 mg/kg [2]	IC50 [3]	inhibition at 30 mg/kg [4]
NC(=O)C1CCCN(Cc2coc3cc(Oc4nc5ncccc5s4)ccc23)C1 (stereo in doubt) [Example 216, (3S)-1-[6-(Thiazolo[4,5-b]pyridin-2-yloxy)-benzofuran-3-ylmethyl]-piperidine-3-carboxylic acid amide]	28 nM	87%	3 nM	87%
C[C@H]1COCCN1Cc1c[nH]c2cc(Oc3nc4ncccc4s3)ccc12 [Example 41, (3S)-2-[3-(3-Methyl-morpholin-4-ylmethyl)-1H-indol-6-yloxy]-thiazolo[4,5-b]pyridine]	34 nM	65%	4 nM	62%
c1cnc2sc(Oc3ccc4c(CN5CCOCC5)c[nH]c4c3)nc2n1 [Example 56, 2-(3-Morpholin-4-ylmethyl-1H-indol-6-yloxy)-thiazolo[4,5-b]pyrazine]	290 nM	40%	81 nM	45%
Fc1cnc2nc(Oc3ccc4c(CN5CCOCC5)c[nH]c4c3)sc2c1 [Example 58, 6-Fluoro-2-(3-morpholin-4-ylmethyl-1H-indol-6-yloxy)-thiazolo[4,5-b]pyridine]	250 nM	84%	10 nM	57%
O=C(O)C1CCN(Cc2cc3cc(Oc4nc5ccccc5s4)ccc3o2)CC1 [Example 76, 1-[5-(Benzothiazol-2-yloxy)-benzofuran-2-ylmethyl]-piperidine-4-carboxylic acid]	48 nM	85%	28 nM	89%
O=C(O)C1CCN(Cc2cc3ccc(Oc4nc5ccccc5s4)cc3o2)CC1 [Example 77, 1-[6-(Benzothiazol-2-yloxy)-benzofuran-2-ylmethyl]-piperidine-4-carboxylic acid]	30 nM	85%	35 nM	77%
CC(=O)N1CC2CN(Cc3cc4cc(Oc5nc6ncccc6s5)ccc4o3)CC2C1 (stereo not drawn) [Example 90, 1-{5-[5-(Thiazolo[4,5-b]pyridin-2-yloxy)-benzofuran-2-ylmethyl]-hexahydro-pyrrolo[3,4-c]pyrrol-2-yl}-ethanone]	22 nM	61%	35 nM	50%
CC(=O)N1C[C@H]2CC[C@@H](C1)N2Cc1cc2cc(Oc3nc4ncccc4s3)ccc2o1 [Example 93, meso-1-{8-[5-(Thiazolo[4,5-b]pyridin-2-yloxy)-benzofuran-2-ylmethyl]-3,8-diaza-bicyclo[3.2.1]oct-3-yl}-ethanone]	23 nM	85%	3 nM	87%
CC(=O)N1C[C@@H]2C[C@H]1CN2Cc1cc2cc(Oc3nc4ncccc4s3)ccc2o1 [Example 95, (1S,4S)-1-{5-[5-(Thiazolo[4,5-b]pyridin-2-yloxy)-benzofuran-2-ylmethyl]-2,5-diaza-bicyclo[2.2.1]hept-2-yl}-ethanone]	26 nM	80%	5 nM	79%
CC(=O)N1CCN(C(=O)c2coc3cc(Oc4nc5ncccc5s4)ccc23)CC1 [Example 380, 1-{4-[6-(Thiazolo[4,5-b]pyridin-2-yloxy)-benzofuran-3-carbonyl]-piperazin-1-yl}-ethanone]	35 nM		7 nM	
O=C(c1coc2cc(Oc3nc4ncccc4s3)ccc12)N1CCC(Oc2ncccn2)CC1 [Example 382, [4-(Pyrimidin-2-yloxy)-piperidin-1-yl]-[6-(thiazolo[4,5-b]pyridin-2-yloxy)-benzofuran-3-yl]-methanone]	60 nM		10 nM	
O=C(c1coc2cc(Oc3nc4ncccc4s3)ccc12)N1CCCCC1 [Example 383, Piperidin-1-yl-[6-(thiazolo[4,5-b]pyridin-2-yloxy)-benzofuran-3-yl]-methanone]	200 nM		50 nM	
O=C(c1coc2cc(Oc3nc4ncccc4s3)ccc12)N1CCC(C(=O)N2CCCCC2)CC1 [Example 384, [4-(Piperidine-1-carbonyl)-piperidin-1-yl]-[6-(thiazolo[4,5-b]pyridin-2-yloxy)-benzofuran-3-yl]-methanone]	120 nM		12 nM	
CC(=O)N1CCN(CC(=O)NCc2coc3cc(Oc4nc5ncccc5s4)ccc23)CC1 [Example 390, 2-(4-Acetyl-piperazin-1-yl)-N-[6-(thiazolo[4,5-b]pyridin-2-yloxy)-benzofuran-3-ylmethyl]-acetamide]	270 nM		27 nM	
Cc1cc(CC(=O)NCc2coc3cc(Oc4nc5ncccc5s4)ccc23)on1 [Example 391, 2-(3-Methyl-isoxazol-5-yl)-N-[6-(thiazolo[4,5-b]pyridin-2-yloxy)-benzofuran-3-ylmethyl]-acetamide]	560 nM		74 nM	
O=C(NCc1coc2cc(Oc3nc4ncccc4s3)ccc12)C1CCC(O)CC1 (stereo not drawn) [Example 392, 4-Hydroxy-cyclohexanecarboxylic acid [6-(thiazolo[4,5-b]pyridin-2-yloxy)-benzofuran-3-ylmethyl]-amide]	290 nM		29 nM	
O=C1CCc2ccccc2N1Cc1coc2cc(Oc3nc4ncccc4s3)ccc12 [Example 397, 1-[6-(Thiazolo[4,5-b]pyridin-2-yloxy)-benzofuran-3-ylmethyl]-3,4-dihydro-1H-quinolin-2-one]	820 nM		16 nM	
O=C1Cc2ccccc2N1Cc1coc2cc(Oc3nc4ncccc4s3)ccc12 [Example 399, 1-[6-(Thiazolo[4,5-b]pyridin-2-yloxy)-benzofuran-3-ylmethyl]-1,3-dihydro-indol-2-one]	300 nM		13 nM	
O=C1Cc2ccc(Cl)cc2N1Cc1coc2cc(Oc3nc4ncccc4s3)ccc12 [Example 402, 6-Chloro-1-[6-(thiazolo[4,5-b]pyridin-2-yloxy)-benzofuran-3-ylmethyl]-1,3-dihydro-indol-2-one]	400 nM		32 nM	
O=C1Cc2cc(F)ccc2N1Cc1coc2cc(Oc3nc4ncccc4s3)ccc12 [Example 403, 5-Fluoro-1-[6-(thiazolo[4,5-b]pyridin-2-yloxy)-benzofuran-3-ylmethyl]-1,3-dihydro-indol-2-one]	690 nM		47 nM	
NC(=O)N1C[C@@H]2C[C@H]1CN2 [Inter. 17, (1S,4S)-2,5-Diaza-bicyclo[2.2.1]heptane-2-carboxylic acid amide hydrochloride]	1000 nM		37 nM	
